Results as given in patent publication US20220089592A1, “IMIDAZO[1,2-A]PYRIDINYL DERIVATIVES AS IRAK4 INHIBITORS” (priority 2019, published 2022).

Tests used:
[1] = target: T1, IRAK4 (Homo sapiens, UniProt Q9NWZ3); experiment: 2-hour 10 μM ATP Biochemical Assay (MesoScale Detection format; IRAK4 phosphorylation of biotin labeled IRAK1 activation loop peptide); settings: IRAK4 MSD BIOCHEMICAL (10 μM ATP) IC50 (μM), 1 nM IRAK4, 2 hours
T1 sequence (Q9NWZ3 1-460): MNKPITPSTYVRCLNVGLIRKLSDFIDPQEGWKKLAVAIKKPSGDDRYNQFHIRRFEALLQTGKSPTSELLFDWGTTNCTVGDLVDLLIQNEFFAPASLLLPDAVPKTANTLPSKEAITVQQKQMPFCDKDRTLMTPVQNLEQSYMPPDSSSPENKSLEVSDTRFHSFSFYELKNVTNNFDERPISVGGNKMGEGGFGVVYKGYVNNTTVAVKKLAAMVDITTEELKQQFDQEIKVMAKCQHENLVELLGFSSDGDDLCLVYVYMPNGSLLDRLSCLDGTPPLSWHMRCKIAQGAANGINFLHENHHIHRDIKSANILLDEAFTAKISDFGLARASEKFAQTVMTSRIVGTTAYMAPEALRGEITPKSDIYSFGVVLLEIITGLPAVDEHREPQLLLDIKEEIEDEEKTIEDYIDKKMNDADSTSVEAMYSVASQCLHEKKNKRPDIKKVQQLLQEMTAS
Summary of the method: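 Electrochemiluminescent MSD readout: after streptavidin capture, phosphothreonine on the biotin-labelled IRAK1 activation-loop peptide detected by rabbit antibody and Sulfo-Tag secondary. Phosphorylation ran 2 h with 10 μM ATP before EDTA quench.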

[2] = target: T1, IRAK4; experiment: 2-hour 1 mM ATP IRAK4 Biochemical assay (as above, but with 100 pM IRAK4 and 1 mM ATP); settings: IRAK4 MSD BIOCHEMICAL (1 mM ATP) IC50 (μM), 100 pM IRAK4, 2 hours
Summary of the method: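 MSD electrochemiluminescence read-out: biotinylated peptide product bound to streptavidin plates, probed with anti-P-Thr rabbit antibody and Sulfo-Tag goat anti-rabbit. Kinase reaction used 1 mM ATP and 100 pM IRAK4 over 2 hours before EDTA quench.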

Row | SMILES | IC50 [1] [µM] | IC50 [2] [µM]
1 | CCOc1cc2nc(C3CCOCC3)cn2cc1NC(=O)c1csc(C)n1 [Example 223, N-(7-ethoxy-2-(tetrahydro-2H-pyran-4-yl)imidazo[1,2-a]pyridin-6-yl)-2-methylthiazole-4-carboxamide] | 0.004 | 0.01
2 | CCOc1cc2nc(C3CCOCC3)cn2cc1NC(=O)c1cccc(C)n1 [Example 224, N-(7-ethoxy-2-(tetrahydro-2H-pyran-4-yl)imidazo[1,2-a]pyridin-6-yl)-6-methylpicolinamide] | 0.001 | 0.003
3 | CCOc1cc2nc(C3CCOCC3)cn2cc1NC(=O)c1ccn2c1CCC2 [Example 225, N-(7-ethoxy-2-(tetrahydro-2H-pyran-4-yl)imidazo[1,2-a]pyridin-6-yl)-2,3-dihydro-1H-pyrrolizine-7-carboxamide] | 0.009 | 0.029
4 | CCOc1cc2nc(C3CCOCC3)cn2cc1NC(=O)c1cccc(C(C)(F)F)n1 [Example 227, 6-(1,1-difluoroethyl)-N-(7-ethoxy-2-(tetrahydro-2H-pyran-4-yl)imidazo[1,2-a]pyridin-6-yl)picolinamide] | 0.001 | 0.001
5 | CCOc1cc2nc(C3CCOCC3)cn2cc1NC(=O)c1cccc(C(F)F)c1 [Example 228, 3-(difluoromethyl)-N-(7-ethoxy-2-(tetrahydro-2H-pyran-4-yl)imidazo[1,2-a]pyridin-6-yl)benzamide] | 0.013 | 0.056
6 | CCOc1cc2nc(C3CCOCC3)cn2cc1NC(=O)c1ccn(C(F)F)n1 [Example 230, 1-(difluoromethyl)-N-(7-ethoxy-2-(tetrahydro-2H-pyran-4-yl)imidazo[1,2-a]pyridin-6-yl)-1H-pyrazole-3-carboxamide] | 0.001 | 0.003
7 | CCOc1cc2nc(C3CCOCC3)cn2cc1NC(=O)c1csc(C(F)(F)F)n1 [Example 231, N-(7-ethoxy-2-(tetrahydro-2H-pyran-4-yl)imidazo[1,2-a]pyridin-6-yl)-2-(trifluoromethyl)thiazole-4-carboxamide] | 0.001 | 0.007
8 | COCCCc1cn2cc(NC(=O)c3cccc(C(F)F)n3)ccc2n1 [Example 234, 6-(difluoromethyl)-N-(2-(3-methoxypropyl)imidazo[1,2-a]pyridin-6-yl)picolinamide] | 0.011 | 0.049
9 | CCOc1cc2nc(C3CCOCC3)cn2cc1NC(=O)c1cccc(OC2CCC2)n1 [Example 236, 6-cyclobutoxy-N-(7-ethoxy-2-(tetrahydro-2H-pyran-4-yl)imidazo[1,2-a]pyridin-6-yl)picolinamide] | 0.006 | 0.019

Next, values leading:

Row | IC50 [1] [µM] | IC50 [2] [µM] | SMILES
10 | 0.001 | 0.005 | CCOc1cc2nc(C3CCOCC3)cn2cc1NC(=O)c1cccc(N(C)C)n1 [Example 237, 6-(dimethylamino)-N-(7-ethoxy-2-(tetrahydro-2H-pyran-4-yl)imidazo[1,2-a]pyridin-6-yl)picolinamide]
11 | 0.004 | 0.015 | CCOc1cc2nc(C3CC3)cn2cc1NC(=O)c1cccc(C2CCOC2)n1 (stereo not shown) [Example 238, N-(2-cyclopropyl-7-ethoxyimidazo[1,2-a]pyridin-6-yl)-6-(tetrahydrofuran-3-yl)picolinamide]
12 | 0.002 | 0.003 | CCOc1cc2nc(C3CCOCC3)cn2cc1NC(=O)c1cccc(C(F)CF)n1 (stereo not shown) [Example 239, 6-(1,2-difluoroethyl)-N-(7-ethoxy-2-(tetrahydro-2H-pyran-4-yl)imidazo[1,2-a]pyridin-6-yl)picolinamide]
13 | 0.006 | 0.019 | CCOc1cc2nc(C3CCOCC3)cn2cc1NC(=O)c1cnc2c(c1)CCO2 [Example 240, N-(7-ethoxy-2-(tetrahydro-2H-pyran-4-yl)imidazo[1,2-a]pyridin-6-yl)-2,3-dihydrofuro[2,3-b]pyridine-5-carboxamide]
14 | 0.01 | 0.041 | CCOc1cc2nc(C(C)(C)C#N)cn2cc1NC(=O)c1csc(C)n1 [Example 241, N-(2-(2-cyanopropan-2-yl)-7-ethoxyimidazo[1,2-a]pyridin-6-yl)-2-methylthiazole-4-carboxamide]
